# Laboratory results published in ChEMBL document CHEMBL4038307, “Influence of a Basic Side Chain on the Properties of Hypoxia-Selective Nitro Analogues of the Duocarmycins: Demonstration of Substantial Anticancer Activity in Combination with Irradiation or Chemotherapy” (J Med Chem, 2017).
# Calls of active or inactive are those of the source. No cut-off for these calls is given here.
# Key:
# SiHa [1] = assay: Antitumor activity against human SiHa cells xenografted in CD-1 Foxn1 nude mouse assessed as tumor regrowth at 237 umol/kg, ip four times for every three days after 100 to 120 days; assay type: functional, organism-based
# Mus musculus [2] = assay: Toxicity in CD-1 Foxn1 nude mouse xenografted with human SiHa cells assessed as lose in body weight at 133 umol/kg, ip four times for every three days after 100 to 120 days; assay type: organism-based; settings: in vivo
# A2780 [3] = assay: Antitumor activity against human A2780 cells xenografted in CD-1 Foxn1 nude mouse assessed as delay in tumor growth at 100 umol/kg, ip four times for every three days after 100 to 120 days; assay type: functional, organism-based
# A2780 [4] = assay: Antitumor activity against human A2780 cells xenografted in CD-1 Foxn1 nude mouse assessed as tumor regression at 133 umol/kg, ip four times for every three days after 100 to 120 days; assay type: functional, organism-based
# A2780 [5] = assay: Antitumor activity against human A2780 cells xenografted in CD-1 Foxn1 nude mouse assessed as tumor regression at 42 to 56 umol/kg, iv after 100 days; assay type: functional, organism-based
# SiHa [6] = assay: Antitumor activity against human SiHa cells xenografted in CD-1 Foxn1 nude mouse assessed as log reduction in colony forming cells under hypoxic condition at 42 umol/kg, iv treated 5 mins after gamma irradiation measured after 18 hrs by excision assay; assay type: functional
# NCI-H460 = assay: Antitumor activity against human H460 cells xenografted in CD-1 Foxn1 nude mouse assessed as reduction in colony forming cells under hypoxic condition at 75 umol/kg, iv treated 5 mins after gamma irradiation measured after 18 hrs by excision assay; assay type: functional, organism-based
# NCI-H1299 = assay: Antitumor activity against human H1299 cells xenografted in CD-1 Foxn1 nude mouse assessed as reduction in colony forming cells at 75 umol/kg, iv treated 5 mins after gamma irradiation measured after 18 hrs by excision assay; assay type: functional, organism-based
# HCT-116 = assay: Antitumor activity against human HCT116 cells xenografted in CD-1 Foxn1 nude mouse assessed as reduction in colony forming cells at 56 umol/kg, iv treated 5 mins after gamma irradiation measured after 18 hrs by excision assay; assay type: functional, organism-based
# CWR22R [7] = assay: Antitumor activity against human 22Rv1 cells xenografted in CD-1 Foxn1 nude mouse assessed as reduction in colony forming cells under hypoxic condition at 30 umol/kg, iv treated 5 mins after gamma irradiation measured after 18 hrs by excision assay; assay type: functional, organism-based
# SiHa [8] = assay: Antitumor activity against human SiHa cells xenografted in CD-1 Foxn1 nude mouse assessed as tumor regression at 42 to 56 umol/kg, iv after more than 100 days in presence of gemcitabine; assay type: functional, organism-based
# Mus musculus [9] = assay: Toxicity in CD-1 Foxn1 nude mouse xenografted with human SiHa cells assessed as body weight change at 42 to 56 umol/kg, iv after 100 to 120 days in presence of gemcitabine; assay type: organism-based; settings: in vivo
# SiHa [10] = assay: Antitumor activity against human SiHa cells xenografted in CD-1 Foxn1 nude mouse assessed as tumor regression at 42 to 56 umol/kg, iv after more than 100 days; assay type: functional, organism-based
# A2780 [11] = assay: Antitumor activity against human A2780 cells xenografted in CD-1 Foxn1 nude mouse assessed as tumor regression at 42 to 56 umol/kg, iv after 8 to 23 days in presence of gemcitabine; assay type: functional, organism-based
# A2780 [12] = assay: Antitumor activity against human A2780 cells xenografted in CD-1 Foxn1 nude mouse assessed as tumor regression at 42 to 56 umol/kg, iv after 100 days in presence of gemcitabine; assay type: functional, organism-based
# Mus musculus [13] = assay: Toxicity in CD-1 Foxn1 nude mouse xenografted with human SiHa cells assessed as sporadic acute toxicity at 42 to 56 umol/kg, iv; settings: in vivo
# CWR22R [14] = assay: Antitumor activity against human 22Rv1 cells xenografted in CD-1 Foxn1 nude mouse assessed as tumor stasis at 32 umol/kg, ip once in every two weeks after 100 to 120 days; assay type: functional, organism-based
# CWR22R [15] = assay: Antitumor activity against human 22Rv1 cells xenografted in CD-1 Foxn1 nude mouse assessed as median tumor growth delay time at 32 umol/kg, ip once in every two weeks after 100 to 120 days; assay type: functional
# Mus musculus [16] = assay: Toxicity in CD-1 Foxn1 nude mouse xenografted with human 22Rv1 cells assessed as change in body weight at 32 umol/kg, ip once in every two weeks after 100 to 120 days; assay type: organism-based; settings: in vivo
# A2780 [17] = assay: Antitumor activity against human A2780 cells xenografted in CD-1 Foxn1 nude mouse assessed as median tumor growth delay time at 15 umol/kg, iv after 100 to 120 days in presence of gemcitabine; assay type: functional
# A2780 [18] = assay: Antitumor activity against human A2780 cells xenografted in CD-1 Foxn1 nude mouse assessed as tumor regrowth at 15 umol/kg, iv after 100 to 120 days; assay type: functional, organism-based
# Mus musculus [19] = assay: Toxicity in CD-1 Foxn1 nude mouse xenografted with human A2780 cells assessed as change in body weight at 15 umol/kg, iv after 100 to 120 days in presence of gemcitabine; assay type: organism-based; settings: in vivo
# Mus musculus [20] = assay: Toxicity in CD-1 Foxn1 nude mouse xenografted with human A2780 cells at 15 umol/kg, iv after 100 to 120 days in presence of gemcitabine; assay type: organism-based; settings: in vivo
# CWR22R [21] = assay: Antitumor activity against human 22Rv1 cells xenografted in CD-1 Foxn1 nude mouse assessed as tumor regrowth at 14 umol/kg, iv after 100 to 120 days; assay type: functional, organism-based
# CWR22R [22] = assay: Antitumor activity against human 22Rv1 cells xenografted in CD-1 Foxn1 nude mouse assessed as tumor regression at 14 umol/kg, iv after 100 to 120 days in presence of docetaxel; assay type: functional, organism-based
# CWR22R [23] = assay: Antitumor activity against human 22Rv1 cells xenografted in CD-1 Foxn1 nude mouse assessed as median tumor growth delay time at 15 umol/kg, iv after 100 to 120 days in presence of docetaxel; assay type: functional
# Mus musculus [24] = assay: Toxicity in CD-1 Foxn1 nude mouse xenografted with human 22Rv1 cells assessed as change in body weight at 14 umol/kg, ip; settings: in vivo
# Mus musculus [25] = assay: Toxicity in CD-1 Foxn1 nude mouse xenografted with human 22Rv1 cells at 14 umol/kg, ip; settings: in vivo
compound,measurement,setting,value
Nc1ccn([C@@H]2O[C@H](CO)[C@@H](O)C2(F)F)c(=O)n1 [GEMCITABINE],Activity,SiHa [1],Active
same,Activity,Mus musculus [2],5%
same,Activity,A2780 [3],Active
same,Activity,A2780 [4],Active
CN(C)CCOc1ccc2[nH]c(C(=O)N3CC(CCl)c4c3cc([N+](=O)[O-])c3cc(S(=O)(=O)NCCOP(=O)(O)O)ccc43)cc2c1 (stereo not drawn),Activity,A2780 [5],inactive
same,Activity,SiHa [6],Active
same,Activity,NCI-H460,Active
same,Activity,NCI-H1299,Active
same,Activity,HCT-116,Active
same,Activity,CWR22R [7],Active
same,Activity,SiHa [8],Active
same,Activity,Mus musculus [9],Non-Toxic
same,Activity,SiHa [10],Active
same,Activity,A2780 [11],Active
same,Activity,A2780 [12],Active
same,Activity,Mus musculus [13],Toxic
CC(=O)O[C@@]12CO[C@@H]1C[C@H](O)[C@@]1(C)C(=O)[C@H](O)C3=C(C)[C@@H](OC(=O)[C@H](O)[C@@H](NC(=O)OC(C)(C)C)c4ccccc4)C[C@@](O)([C@@H](OC(=O)c4ccccc4)[C@H]21)C3(C)C [DOCETAXEL ANHYDROUS],Activity,CWR22R [14],inactive
same,Time,CWR22R [15],13 days
same,Activity,Mus musculus [16],Toxic
Nc1cc2c(c3ccc(S(=O)(=O)NCCOP(=O)(O)O)cc13)C(CCl)CN2C(=O)c1cc2cc(OCCN3CCOCC3)ccc2[nH]1 (stereo not drawn),Activity,SiHa [6],>1
same,Activity,NCI-H460,Active
same,Activity,NCI-H1299,Active
same,Activity,HCT-116,Active
same,Activity,CWR22R [7],Active
same,Time,A2780 [17],14 days
same,Activity,A2780 [18],inactive
same,Activity,Mus musculus [19],Non-Toxic
same,Activity,Mus musculus [20],Non-Toxic
same,Activity,CWR22R [21],inactive
same,Activity,CWR22R [22],Active
same,Time,CWR22R [23],17 days
same,Activity,Mus musculus [24],Non-Toxic
same,Activity,Mus musculus [25],Non-Toxic
